The values below come from PubChem BioAssay AID1259407 (Chemical Carcinogenesis Research Information System (CCRIS), 2018).

The data set concerns CCRIS mutagenicity, Ames/micronucleus/aberration tests. Kind of data set: CCRIS mutagenicity studies.
[1] abbreviates: Test System: AMES SALMONELLA TYPHIMURIUM, Strain/Indicator: TA1535, Metabolic Activation: NONE, Method: PREINCUBATION
[2] abbreviates: Test System: AMES SALMONELLA TYPHIMURIUM, Strain/Indicator: TA1535, Metabolic Activation: RAT, LIVER, S-9, AROCLOR 1254, Method: PREINCUBATION
Where [3] appears, read: Test System: AMES SALMONELLA TYPHIMURIUM, Strain/Indicator: TA1537, Metabolic Activation: NONE, Method: PREINCUBATION
Where [4] appears, read: Test System: AMES SALMONELLA TYPHIMURIUM, Strain/Indicator: TA1537, Metabolic Activation: RAT, LIVER, S-9, AROCLOR 1254, Method: PREINCUBATION

SMILES strings stand for the structures. Active and inactive are the calls of the source. How the calls were made is not given here.

As to `CC(=O)NNc1ccc(CO)cc1`, the mutagenic call runs as follows: (Test System: AMES SALMONELLA TYPHIMURIUM, Strain/Indicator: TA104, Metabolic Activation: MUSHROOM TYROSINASE, Method: PREINCUBATION) “active; positive”; (Test System: AMES SALMONELLA TYPHIMURIUM, Strain/Indicator: TA104, Metabolic Activation: NONE, Method: PREINCUBATION) “inactive; negative”; (Test System: AMES SALMONELLA TYPHIMURIUM, Strain/Indicator: TA104, Metabolic Activation: RAT, LIVER, CYTOSOL AND MICROSOMES, AROCLOR 1254, NADPH, Method: PREINCUBATION) “active; positive”; (Test System: AMES SALMONELLA TYPHIMURIUM, Strain/Indicator: TA104, Metabolic Activation: RAT, LIVER, CYTOSOL AND MICROSOMES, AROCLOR 1254, Method: PREINCUBATION) “inactive; negative”; (Test System: AMES SALMONELLA TYPHIMURIUM, Strain/Indicator: TA104, Metabolic Activation: RAT, LIVER, CYTOSOL, AROCLOR 1254, Method: PREINCUBATION) “inactive; negative”; (Test System: AMES SALMONELLA TYPHIMURIUM, Strain/Indicator: TA104, Metabolic Activation: RAT, LIVER, MICROSOMES, AROCLOR 1254, NADPH, Method: PREINCUBATION) “inactive; negative”. Further, the mutagenic call is “inactive; negative” under setting [1], “inactive; negative” under setting [2], “active; positive” under setting [3] and “inactive; negative” under setting [4].
With `C=CCOCC1CO1` (centres undefined), the mutagenic call (End Point: IN VITRO CHROMOSOMAL ABERRATIONS, Test System: CHL CELLS, Metabolic Activation: NONE) is “active; positive (structural changes)”; the mutagenic call (End Point: IN VITRO CHROMOSOMAL ABERRATIONS, Test System: CHL CELLS, Metabolic Activation: RAT, LIVER, S-9, SODIUM PHENOBARBITAL AND 5,6-BENZOFLAVONE) was “active; positive (structural changes”; the mutagenic call (Test System: AMES SALMONELLA TYPHIMURIUM, Strain/Indicator: TA98, Metabolic Activation: HAMSTER, LIVER, S-9, AROCLOR 1254, Method: PREINCUBATION) was “inactive; negative”; the mutagenic call (Test System: AMES SALMONELLA TYPHIMURIUM, Strain/Indicator: TA98, Metabolic Activation: NONE, Method: PREINCUBATION) was “inactive; negative”; the mutagenic call (Test System: AMES SALMONELLA TYPHIMURIUM, Strain/Indicator: TA98, Metabolic Activation: RAT, LIVER, S-9, AROCLOR 1254, Method: PREINCUBATION) is “inactive; negative”; the mutagenic call (Test System: AMES SALMONELLA TYPHIMURIUM, Strain/Indicator: TA100, Metabolic Activation: HAMSTER, LIVER, S-9, AROCLOR 1254, Method: PREINCUBATION) was “active; positive”. The mutagenic call (Test System: AMES SALMONELLA TYPHIMURIUM, Strain/Indicator: TA100, Metabolic Activation: NONE, Method: PREINCUBATION) was “active; positive”; the mutagenic call (Test System: AMES SALMONELLA TYPHIMURIUM, Strain/Indicator: TA100, Metabolic Activation: RAT, LIVER, S-9, AROCLOR 1254, Method: PREINCUBATION) is “active; positive”; the mutagenic call (Test System: AMES SALMONELLA TYPHIMURIUM, Strain/Indicator: TA1535, Metabolic Activation: HAMSTER, LIVER, S-9, AROCLOR 1254, Method: PREINCUBATION) is “active; positive”; the mutagenic call under setting [1] was “active; positive”; the mutagenic call under setting [2] is “active; positive”; the mutagenic call (Test System: AMES SALMONELLA TYPHIMURIUM, Strain/Indicator: TA1537, Metabolic Activation: HAMSTER, LIVER, S-9, AROCLOR 1254, Method: PREINCUBATION) is “inactive; negative”. Also, the mutagenic call is, setting by setting: under setting [3], “inactive; negative”; under setting [4], “inactive; negative”.
